The text below walks through data of patent US12581252B2, “Substituted pyrrolo[3,4-b]pyridines as PI3K-α inhibitors” (Relay Therapeutics, Inc., priority 2020, dated 2026).

Sequence of H1047R PIK3CA enzyme (P42336 whole entry H1047R): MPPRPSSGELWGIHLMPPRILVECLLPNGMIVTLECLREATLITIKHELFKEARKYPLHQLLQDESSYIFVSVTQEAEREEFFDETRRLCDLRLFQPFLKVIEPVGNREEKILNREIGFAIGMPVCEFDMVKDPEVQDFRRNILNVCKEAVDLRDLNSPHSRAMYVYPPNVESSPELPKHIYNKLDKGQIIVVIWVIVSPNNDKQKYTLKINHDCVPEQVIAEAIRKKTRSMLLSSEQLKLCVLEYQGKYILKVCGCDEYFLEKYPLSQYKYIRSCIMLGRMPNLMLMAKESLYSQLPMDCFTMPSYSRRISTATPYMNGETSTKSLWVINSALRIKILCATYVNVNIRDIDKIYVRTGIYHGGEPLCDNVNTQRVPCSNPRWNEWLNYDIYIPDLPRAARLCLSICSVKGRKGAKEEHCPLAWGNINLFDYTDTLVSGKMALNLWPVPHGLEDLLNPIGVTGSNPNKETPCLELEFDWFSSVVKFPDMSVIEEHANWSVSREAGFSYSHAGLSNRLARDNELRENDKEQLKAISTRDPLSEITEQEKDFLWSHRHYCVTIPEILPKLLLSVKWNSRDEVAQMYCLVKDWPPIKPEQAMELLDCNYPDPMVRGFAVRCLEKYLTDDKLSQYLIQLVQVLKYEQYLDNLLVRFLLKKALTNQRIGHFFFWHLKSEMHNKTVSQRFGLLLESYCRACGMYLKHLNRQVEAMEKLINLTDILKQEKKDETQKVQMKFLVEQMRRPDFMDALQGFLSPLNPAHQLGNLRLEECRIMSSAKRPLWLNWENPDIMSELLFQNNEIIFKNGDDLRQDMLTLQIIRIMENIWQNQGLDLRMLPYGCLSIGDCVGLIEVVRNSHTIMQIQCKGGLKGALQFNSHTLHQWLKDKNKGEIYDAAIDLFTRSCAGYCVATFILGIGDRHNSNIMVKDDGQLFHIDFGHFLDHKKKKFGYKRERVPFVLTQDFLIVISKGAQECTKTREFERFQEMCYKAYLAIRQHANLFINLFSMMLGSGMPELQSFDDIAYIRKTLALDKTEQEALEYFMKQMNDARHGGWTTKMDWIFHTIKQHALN
Sequence of H1047R PIK3CA enzyme (P27986 whole entry partner): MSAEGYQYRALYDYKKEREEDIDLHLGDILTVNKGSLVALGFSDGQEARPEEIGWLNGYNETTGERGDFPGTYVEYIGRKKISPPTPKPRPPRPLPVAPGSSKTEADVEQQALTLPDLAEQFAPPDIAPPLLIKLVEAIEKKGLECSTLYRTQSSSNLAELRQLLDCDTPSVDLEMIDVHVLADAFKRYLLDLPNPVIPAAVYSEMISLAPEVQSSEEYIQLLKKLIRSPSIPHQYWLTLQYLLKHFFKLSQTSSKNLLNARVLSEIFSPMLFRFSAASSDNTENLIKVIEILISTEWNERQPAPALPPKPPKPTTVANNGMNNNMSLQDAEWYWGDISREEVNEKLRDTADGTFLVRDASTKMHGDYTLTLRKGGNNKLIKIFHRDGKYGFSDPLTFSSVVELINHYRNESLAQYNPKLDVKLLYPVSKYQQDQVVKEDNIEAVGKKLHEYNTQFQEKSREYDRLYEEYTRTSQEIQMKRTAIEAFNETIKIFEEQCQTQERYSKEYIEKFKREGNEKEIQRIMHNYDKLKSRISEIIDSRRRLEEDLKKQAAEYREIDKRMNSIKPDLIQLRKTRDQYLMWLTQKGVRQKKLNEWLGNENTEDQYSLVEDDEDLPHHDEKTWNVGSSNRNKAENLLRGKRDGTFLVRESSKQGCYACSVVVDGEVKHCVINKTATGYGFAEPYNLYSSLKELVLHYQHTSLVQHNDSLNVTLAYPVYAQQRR

This test addresses H1047R PIK3CA enzyme (Homo sapiens, UniProt P42336, H1047R). Kind of test: ADP-Glo Biochemical PIK3CA Kinase Assay.
A word on the IC50: it is the point on the concentration scale where inhibition reaches its midpoint. Higher therefore signals weaker potency in that assay. `CC(=O)COc1cc(NC(=O)c2cc(F)cc(C(F)(F)F)c2)c2c(c1)C(=O)NC2c1cc(F)ccc1Cl` (stereo not shown) [Compound I-708]: the IC50 was not above 0.1 µM.

Molecule `O=C(Nc1cc(-c2cn[nH]c2)cc2c1[C@@H](c1cc(F)ccc1Cl)NC2=O)c1cc(F)cc(C(F)(F)F)c1` [Compound I-1079] registered an IC50 not above 0.1 µM.

In turn, `Cc1cn(-c2cc(NC(=O)N3C[C@](O)(C(F)(F)F)c4cc(F)ccc43)c3c(c2)C(=O)N[C@H]3c2cc(F)ccc2Cl)cn1` (single isomer, unassigned) [Compound I-2639] gave an IC50 of 10 to 100 µM.

`Cc1ccccc1C1NS(=O)(=O)c2cccc(NC(=O)c3cc(F)cc(C(F)(F)F)c3)c21` (stereo not shown) [Compound I-535]: the half-inhibitory concentration (IC50) is 1 to 10 µM.

`CN1C[C@@H](COc2cc(NC(=O)c3cc(F)cc(C(F)(F)F)c3)c3c(c2)C(=O)N[C@H]3c2cc(F)ccc2Cl)CC1=O` (single isomer, unassigned) [Compound I-1524]: the 50% inhibitory concentration (IC50) is 10 to 100 µM.

In turn, `Cc1ccccc1C1NC(=O)c2cccc(NC(=O)c3ncc4ccc(Cl)cn34)c21` (stereo not shown) [Compound I-151] gave a concentration for half-maximal inhibition (IC50) of 10 to 100 µM.

Take `CC(C#N)n1cc(-c2cc(NC(=O)c3cc(F)cc(C(F)(F)F)c3)c3c(c2)C(=O)NC3c2cc(F)ccc2Cl)cn1` (stereo not shown) [Compound I-1837]: the half-inhibitory concentration (IC50) was not above 0.1 µM.

For `O=C1N[C@H](c2cc(F)ccc2Cl)c2c(NC(=O)[C@H]3C[C@H]3C(F)(F)F)cc(Br)cc21` (racemic) [Compound I-1854], the concentration for half-maximal inhibition (IC50) is 10 to 100 µM.

The molecule `O=C1NC(c2cc(F)ccc2Cl)c2c1cccc2-n1[nH]c(=O)c2ccccc21` (stereo not shown) [Compound I-1714] gave an IC50 of 10 to 100 µM.

`O=C(CCc1ccccc1C(F)(F)F)Nc1cc(Br)cc2c1C(c1cc(F)ccc1Cl)NC2=O` (stereo not shown) [Compound I-600]: the concentration for half-maximal inhibition (IC50) was in the range of 1 to 10 µM.

With `CC12CC3CC(C)(C1)CC(C(=O)Nc1cccc4c1C(c1cc(F)ccc1Cl)NC4=O)(C3)C2` (stereo not shown) [Compound I-1074], the IC50 is 0.1 to 0.5 µM.

In turn, `CC1(C)CCc2scc(C(=O)Nc3cccc4c3C(c3cc(F)ccc3Cl)NC4=O)c2C1` (stereo not shown) [Compound I-2235] returned an IC50 of 1 to 10 µM.

`N#CC1CN(S(=O)(=O)Cc2cc(NC(=O)c3cc(F)cc(C(F)(F)F)c3)c3c(c2)C(=O)NC3c2cc(F)ccc2Cl)C1` (stereo not shown) [Compound I-1556]: the IC50 is not above 0.1 µM.

In turn, `Cc1ccc(F)cc1[C@H]1NC(=O)c2cc(Br)cc(NC(=O)c3cc(F)cc(C(F)(F)F)c3)c21` [Compound I-757] showed a half-inhibitory concentration (IC50) of 1 to 10 µM.

Regarding `Cc1cccc2c1CCN2C(=O)Nc1cccc2c1C(c1cc(F)ccc1Cl)NC2=O` (stereo not shown) [Compound I-2438], the IC50 fell in the range of 1 to 10 µM.

`CN1CC(C2NC(=O)c3cccc(NC(=O)c4cc(F)cc(C(F)(F)F)c4)c32)C1` (racemic) [Compound I-1832] came in with an IC50 of 10 to 100 µM.

As for `C[C@@H](C#N)Cn1cc(-c2cc(NC(=O)N3C[C@H](O)c4cc(F)ccc43)c3c(c2)C(=O)N[C@@H]3c2cc(F)ccc2Cl)cn1` (single isomer, unassigned) [Compound I-2501], the 50% inhibitory concentration (IC50) is 0.1 to 0.5 µM.

In turn, `CC(O)(CO)c1cc(NC(=O)c2cc(F)cc(C(F)(F)F)c2)c2c(c1)C(=O)NC2c1cc(F)ccc1Cl` (stereo not shown) [Compound I-382] gave an IC50 of 0.1 to 0.5 µM.

On to `O=C1NC(c2cc(F)ccc2Cl)c2c(NC(=O)c3nccc4ccccc34)cc(Br)cc21` (stereo not shown) [Compound I-638], for which the IC50 lay in the range of 10 to 100 µM.

Molecule `O=C(Nc1cc(-c2ccn3nccc3n2)cc2c1C(c1cc(F)ccc1Cl)NC2=O)c1cc(F)cc(C(F)(F)F)c1` (stereo not shown) [Compound I-1763] returned a half-inhibitory concentration (IC50) not above 0.1 µM.

`Cc1ccccc1C1NC(=O)c2c(C)ncc(NC(=O)c3cc(F)cc(C(F)(F)F)c3)c21` (stereo not shown) [Compound I-244, 3-Fluoro-N-(4-methyl-3-oxo-1-(o-tolyl)-2,3-dihydro-1H-pyrrolo[3,4-c]pyridin-7-yl)-5-(trifluoromethyl)benzamide] displayed an IC50 of 0.1 to 0.5 µM.

The molecule `CC(C)(CC(F)(F)F)C(=O)Nc1cc(Br)cc2c1C(c1cc(F)ccc1Cl)NC2=O` (stereo not shown) [Compound I-1619] showed a concentration for half-maximal inhibition (IC50) of 10 to 100 µM.
